One molecule from publication PMC5297726, “Anti-Neuroblastoma Properties of a Recombinant Sunflower Lectin” (International Journal of Molecular Sciences, 2017) can be followed below.

This assay concerns the target T1, Trx-rHelja (Helianthus annuus, UniProt A0A059VAE5).
T1 construct: N-terminal thioredoxin, His6 and enterokinase-site tags kept; E. coli Rosetta-gami2 (DE3) pLysS; about 35 kDa fusion (Helja about 20 kDa)
Briefly: affinity chromatography on D-mannose-agarose, elution with mannose, SDS-PAGE. It counts as binding. As to conditions: 50 mM Tris-HCl pH 7.5, 100 mM NaCl; D-mannose immobilised on agarose; eluted with 200 mM free mannose.

T1 sequence (A0A059VAE5 entry or part of it): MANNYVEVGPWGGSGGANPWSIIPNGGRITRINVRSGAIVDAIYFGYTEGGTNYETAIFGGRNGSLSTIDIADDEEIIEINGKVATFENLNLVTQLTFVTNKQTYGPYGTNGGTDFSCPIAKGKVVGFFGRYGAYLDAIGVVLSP

Regarding `OC[C@H]1OC(O)[C@@H](O)[C@@H](O)[C@@H]1O` (stereo partly shown) [mannose], the “affinity chromatography on D-mannose-agarose, elution with mannose, SDS-PAGE” value was “the recombinant protein was bounded to the matrix and eluted with mannose”.
